# Source: US8969081B2, “Caudal motor neuron derived from embryonic stem cells under conditions essentially free of any retinoid” (The Trustees of Columbia University in the City of New York, priority 2008, dated 2015)
# Entries after “also recorded” stand apart in the source; their conditions may differ.
# Legend:
# [1] = tested on: Hb9-GFP ES cells; assay: Efficiency of motor neuron specification (Hb9-GFP+ cells); format: cell-based, mouse
# [2] = tested on: embryoid bodies from ES cells; assay: Dorso-ventral progenitor marker expression in embryoid bodies; format: cell-based, mouse; conditions: 1 μM HhAg1.3, absence of RA
# Protocol: (§1) Immunocytochemistry on ES cell-derived MNs and EBs was performed as previously described (Wichterle et al., 2002). Antibodies against the following proteins were used in the analysis during this study: Otx2, Hoxa5, Hoxc8, Hoxc6, Hoxc9, Hoxd9, Hoxd10, Foxp1, Lhx3, Pea3, Scip, NeuN, dsRed, NF.
# To determine whether motor neuron progenitors are correctly specified at 1 μM concentrations of HhAg1.3 expression pattern of a series of DV progenitor markers were examined.
# The endogenous Shh signaling centers have been identified as clusters of Foxa2+ cells expressing Shh (FIG. 2D).
# Immunocytochemistry on dissociated ES-MNs and cryosectioned EBs was performed as previously described (Wichterle et al., 2002). In this study, the following antibodies were used: goat anti-Meis1 (Santa Cruz Biotechnology, SCB), mouse anti-Lhx3 (Developmental Studies Hybridoma Bank, DSHB), mouse anti-Lhx1/2 (DSHB), mouse anti-Nkx2.2 (DSHB), goat anti-Hoxc6 (SCB), rabbit anti-Hoxd9 (SCB), rabbit anti-Otx2 (kindly provided by G. Corte), mouse anti-Isl1 (DSHB), mouse anti-Hoxc 8 (DSHB), mouse anti-NeuN (Chemicon), rabbit anti-dsRed (Clontech), rabbit anti-Brachyury (SCB), mouse anti-Sonic Hedgehog (DSHB), mouse anti-FoxA2 (DSHB), mouse anti-Pax7 (DSHB), mouse anti-Hb9 (DSHB), guinea pig anti-Hb9 (kindly provided by the Project ALS laboratory). […]
# [3] = tested on: Hb9-GFP ES cells; conditions: MNs generated in the presence of RA (Wichterle et al., 2002); cited from earlier work
# [4] = tested on: differentiating ES cells / ES-MNs; assay: Rostro-caudal patterning of differentiating ES cells (Hox / positional marker immunostaining); format: cell-based, mouse
# Protocol: Differentiation of cervical level motor neurons from mouse ES cells was performed as previously described (Wichterle et al., 2002). For differentiation of caudal brachial level MNs from ES cells, ES cells were grown in ES cell medium for two days, dissociated and plated into non-adherent tissue culture dishes using ADFNK medium at a density of 20,000 cells/ml. Medium is changed each day but not on Day 3 and Day 4 of differentiation (three and four days after dissociation of ES cells and plating into differentiation medium, respectively). Addition of any factors to differentiating embryonic bodies (EBs) was performed on Day 3. These included: 1 μg/ml Dickopf-1 Dkk1 (R&D Systems), FGF Receptor Inhibitor (PD173074, 100 nM final concentration), FGFb (Recombinant Human, FTF-basic, 120-17, PeproTech), rhGdf11 (R&D Systems, Cat#1958-GD). GDNF (10 ng/ml, R&D Systems) was supplemented on Day 5 of differentiation in selected cultures.
# (§2) For immunocytochemical analysis, embryonic bodies (EBs) were dissociated using 0.05% Trypsin-EDTA on Day 6 and plated at low densities on laminin coated coverslips using ADFNB medium supplemented with 10 ng/ml Glial cell-derived neurotrophic factor (GDNF). For quantification of MN subtypes, EBs were collected on Day 6 and dissociated using 0.05 Trypsin-EDTA. Dissociated cells were plated on laminin coated coverslips using ADFNB medium (DMEM/F12, Neurobasal, 1 ml B27 50× supplement and optional 5 ng/ml of GDNF to enhance survival of MN cultures) and fixed with 4% PFA one day later.
# as §1
# (§3) For each experiment, 10 distinct randomized image fields were taken using a confocal microscope LSM Zeiss Meta 510. Expression of all markers used for quantifications was gated to GFP positive cells, ES cell-derived spinal MNs. Images were analyzed for the expression of the above stated markers in the context of the ES cell-derived caudal brachial MNs. Each quantification is the result of at least three independent experiments (three independent differentiation experiments).
# All experiments were performed with HBG3 ES cell line harboring Hb9-GFP transgene (Wichterle et al., 2002) and key experiments were confirmed using a control MM13 ES cell line. Differentiation of HBG3 ES cell line under RA/Hh conditions into rostral cervical MNs was performed as previously described (Wichterle et al., 2002; Wichterle and Peljto, 2008). For production of cervical MNs, ES cells were plated at 50,000 cells/ml in ADFNK differentiation medium [Advanced D-MEM/F-12 (Invitrogen): Neurobasal medium (Invitrogen) (1:1), 10% Knockout Serum Replacement (Invitrogen), […] L-Glutamine (Invitrogen), 0.1 mM β-mercaptoethanol (Sigma), and Pen/Strep (Invitrogen)]. Medium was completely changed on days 1, 2 and of differentiation. EBs were split 1:4 on day 2 of differentiation and the medium was supplemented with 1 μM all-trans retinoic acid (RA, Sigma) and Hh agonist (0.5 μM SAG, Calbiochem or 1 μM HhAg1.3, (Frank-Kamenetsky et al., 2002)). To generate caudal brachial level MNs from ES cells under FGF/Hh conditions, ES cells were plated into non-adherent tissue culture dishes in ADFNK medium (˜20,000 cells/ml). Embryoid bodies (EBs) were split 1:4 on day 2 of differentiation and the medium was changed on days 1, 2 and 5. Selected cultures were supplemented with the following reagents: 10 nM-1 μM RA, 10 nM-1 μM Hh Agonist, 1 μg/ml recombinant mouse Dickkopf-1 (R&D Systems), 50-100 nM FGF/VEGF Receptor Tyrosine Kinase Inhibitor (PD173074, Calbiochem) (Mohammadi et al., 1998), 100-625 ng/ml recombinant human bFGF (PeproTech), 20 ng/ml recombinant human Gdf11/Bmp11 (R&D Systems), 10 ng/ml recombinant rat GDNF (R&D Systems). […]
# [5] = tested on: ES-MNs; assay: Columnar and divisional identity of ES-MNs (FoxP1, Lhx3, Lhx1 immunostaining); format: cell-based, mouse
# Protocol: as §2, §1
# as §3, with “experiments). […]” for “experiments).”
Structure (SMILES),"Percentage of Hb9-GFP+ cells with increasing Hh agonist ([1]; 10 nM, 50 nM, 100 nM, 1 μM on day 2, EBs dissociated day 7)","Motor neuron generation at high HhAg1.3 concentrations ([1]; ADFNK medium, >500 nM)","GFP positive MNs, % of all cells ([1]; ADFNK medium, absence or low concentrations of HhAg1.3 (<100 nM) added Day 2, Day 6)",Expression of Nkx2.2 and Foxa2 (Hnf3β) [2],"Expression of Pax7, Pax6 and Olig2 [2]",HhAg1.3 concentration that efficiently induces cervical MNs [3] [µM],"Hoxc8 expression in ES-MNs, loss after RA ([4]; 10 nM RA on day 3 of differentiation, two independent experiments) [%]","Rostro-caudal positional marker expression / segmental identity ([4]; Example 1, EBs supplemented on Day 3, markers examined two to four days later)","Rostro-caudal identity of MNs after RA ([4]; Example 2, 10 nM-1 μM on day 3, stained day 7)",Rostro-caudal identity (Hoxc8+ ES-MNs) after late RA ([4]; RA on day 4 or 5 of differentiation),"FoxP1+ ES-MNs expressing Lhx1 ([5]; RA (1 μM) on day 5 of differentiation, analysed day 7) [%]","Lhx1+ BrdU- ES-MNs ([5]; RA on day 5, BrdU from day 5 onwards, dissociated day 6) [%]"
CNC1CCC(N(Cc2cccc(-c3ccncc3)c2)C(=O)c2sc3ccccc3c2Cl)CC1 (stereo not drawn) [HhAg1.3],does not significantly change the percentage of Hb9-GFP^+ cells,failure to generate motor neurons,8-10%,most cells within embryoid bodies expressed the ventral-most markers,not detected,0.5 to 2,,,,,,
"CC1=C(/C=C/C(C)=C/C=C/C(C)=C/C(=O)O)C(C)(C)CCC1 [RA, all-trans retinoic acid, reference compound]",,,,,,,~10,induced rostral cervical identity characterized by Hoxa5 expression,specification of Hoxa5^+ rostral cervical MNs; also recorded: generation of Hoxa5^+ cervical MNs lacking expression of more posterior Hox genes,did not change the rostro-caudal positional identity; also recorded: does not result in significant changes in the numbers of Hoxc8^+ ES-MNs,15,~10
